ChEMBL document CHEMBL1201862, “PubChem BioAssay data set” (2004)
Activity calls are given as the source filed them.

Columns and labels:
Coagulation factor XII = target: T1, Coagulation factor XII (Homo sapiens, UniProt P00748); assay type: functional;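 further: activated factor XIIa alpha cleaving a fluorogenic AMC peptide substrate; inhibitor potency from loss of enzyme activity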
T1 sequence (P00748 whole entry): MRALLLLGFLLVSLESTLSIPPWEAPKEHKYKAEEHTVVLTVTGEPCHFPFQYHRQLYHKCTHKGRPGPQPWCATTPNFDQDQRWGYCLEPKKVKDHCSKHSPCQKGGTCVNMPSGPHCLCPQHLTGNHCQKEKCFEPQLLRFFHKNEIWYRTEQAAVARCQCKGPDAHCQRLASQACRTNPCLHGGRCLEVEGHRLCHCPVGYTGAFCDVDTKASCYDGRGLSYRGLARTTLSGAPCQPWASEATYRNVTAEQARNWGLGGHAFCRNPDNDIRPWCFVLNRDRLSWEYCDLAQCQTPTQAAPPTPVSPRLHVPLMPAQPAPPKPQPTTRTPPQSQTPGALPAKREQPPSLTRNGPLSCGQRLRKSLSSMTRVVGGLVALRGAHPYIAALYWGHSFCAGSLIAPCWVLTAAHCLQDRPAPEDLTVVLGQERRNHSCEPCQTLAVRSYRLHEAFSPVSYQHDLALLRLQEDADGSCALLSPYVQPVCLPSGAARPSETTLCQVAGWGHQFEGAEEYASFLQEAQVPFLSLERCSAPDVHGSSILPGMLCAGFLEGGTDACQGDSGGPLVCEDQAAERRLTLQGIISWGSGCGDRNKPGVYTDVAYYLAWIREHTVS

[1] = target: T2, Calpain-2 catalytic subunit (Sus scrofa, UniProt P43367); test: pig calpain II inhibitor potency, dose response, biochemical, fluorogenic peptide substrate (AID 1420); assay type: functional
T2 sequence (P43367 whole entry): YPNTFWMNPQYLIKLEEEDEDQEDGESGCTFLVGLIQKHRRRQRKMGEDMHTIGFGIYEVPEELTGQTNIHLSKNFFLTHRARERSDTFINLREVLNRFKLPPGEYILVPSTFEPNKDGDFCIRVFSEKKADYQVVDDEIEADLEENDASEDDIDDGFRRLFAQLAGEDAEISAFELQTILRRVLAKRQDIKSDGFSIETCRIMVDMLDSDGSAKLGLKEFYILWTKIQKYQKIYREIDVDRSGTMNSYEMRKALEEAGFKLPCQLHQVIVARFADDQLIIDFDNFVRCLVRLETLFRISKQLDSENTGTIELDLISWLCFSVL

[2] = P. falciparum Dd2 growth inhibitors, dose response, SYBR Green, cherry-picked samples (AID 1159567); assay type: functional, cell-based
Nonstructural protein 1 = Nonstructural protein 1 (Influenza A virus, UniProt Q194T2); assay type: functional, Influenza A virus (A/California/07/2009(H1N1))
[3] = NIH-3T3 fibroblast cytotoxicity, dose response, cytotoxicity control, cell-based, fluorescence, Alamar Blue, secondary assay (AID 2327); assay type: functional;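 further: NIH-3T3 mouse fibroblasts cultured with fluconazole at 8 µg/mL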
[4] = C. albicans growth with fluconazole, confirmation, fluorescence, retest (AID 2467); assay type: functional, cell-based
[5] = THP-1 cell cytotoxicity, dose response, cytotoxicity control for non-replicating M. tuberculosis project (AID 489025); assay type: functional
Fatty acid synthase [6] = target: T3, Fatty acid synthase (Homo sapiens, UniProt P49327); test: FAS thioesterase domain inhibitors, dose response, biochemical, kinetic fluorescence intensity (AID 624326); assay type: functional;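 further: rate of fluorescence rise from hydrolysis of a fluorogenic O-methyl fluorescein ester substrate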
Fatty acid synthase [7] = target: T3, Fatty acid synthase; test: FAS thioesterase domain inhibitors, dose response, biochemical, endpoint fluorescence intensity, uHTS hits (AID 624327); assay type: functional;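 further: fluorescence from hydrolysis of an O-methyl fluorescein acyl ester substrate by the enzyme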
[8] = system: Streptococcus sp. 'group A'; test: growth inhibition of control SK(-) GAS strain, dose response, counter-screen for streptokinase expression inhibitor project, luminescence, kanamycin, BacTiterGlo, confirmation (AID 1900); assay type: functional, organism-based
[9] = target: T4, Heat shock factor protein 1 (Mus musculus, UniProt P38532); test: inhibition of MG132-induced HSE-luciferase signal, confirmation, cell-based, NIH3T3, luminescence, dose retest (AID 2382); assay type: functional;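 further: NIH3T3 fibroblasts with HSF1-driven luciferase reporter stressed by proteasome inhibitor MG132; luminescence from HSF1-driven luciferase expression after 8 hours of MG132 stress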
T4 sequence (P38532 whole entry): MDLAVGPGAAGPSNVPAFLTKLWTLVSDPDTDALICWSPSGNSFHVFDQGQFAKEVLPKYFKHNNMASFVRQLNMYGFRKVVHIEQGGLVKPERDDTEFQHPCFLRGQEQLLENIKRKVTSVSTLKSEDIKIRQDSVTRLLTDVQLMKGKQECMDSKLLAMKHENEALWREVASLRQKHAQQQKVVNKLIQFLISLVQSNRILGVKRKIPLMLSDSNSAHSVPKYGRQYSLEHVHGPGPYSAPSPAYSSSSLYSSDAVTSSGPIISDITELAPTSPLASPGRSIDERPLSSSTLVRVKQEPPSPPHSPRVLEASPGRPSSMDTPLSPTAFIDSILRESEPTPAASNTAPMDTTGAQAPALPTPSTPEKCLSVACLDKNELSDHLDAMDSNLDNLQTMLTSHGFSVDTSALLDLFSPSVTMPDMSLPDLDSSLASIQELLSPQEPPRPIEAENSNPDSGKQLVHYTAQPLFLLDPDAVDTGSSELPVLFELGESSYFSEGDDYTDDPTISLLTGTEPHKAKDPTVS

Streptococcus = test: Group A Streptococcus viability loss, dose response, counter-screen for streptokinase expression inhibitor project, luminescence, BacTiterGlo (AID 1915); assay type: functional, organism-based;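 further: potency for reduction of bacterial viability or growth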
[10] = Luminescence Cell-Based Dose Confirmation HTS to Identify Activators of 5'UTR Stem-Loop Driven Alpha-Synuclein mRNA Translation in H4 Neuroglioblastoma Cells. [Related pubchem assays: 1829 (Project Summary), 1814 (Primary HTS)]; assay type: functional
[11] = Luminescence Cell-Based Dose Response HTS to Identify Activators of Luciferase Translation or Activity in H4 […] Cells. [Related pubchem assays: 1829 (Project Summary), 1814 (Primary HTS)]; assay type: functional
H4 = test: Luminescence Cell-Based Dose Response HTS to Identify Activators of 5'UTR Stem-Loop Driven Prion Protein mRNA Translation in H4 Neuroglioblastoma Cells. [Related pubchem assays: 1829 (Project Summary), 1814 (Primary HTS)]; assay type: functional; settings: Homo sapiens
[12] = target: T5, Ubiquitin-conjugating enzyme E2 N (Homo sapiens, UniProt P61088); assay type: functional;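 further: Dose-response confirmation in a TR-FRET assay detecting UBC13-driven polyubiquitin chain formation, inhibition measured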
T5 sequence (P61088 whole entry): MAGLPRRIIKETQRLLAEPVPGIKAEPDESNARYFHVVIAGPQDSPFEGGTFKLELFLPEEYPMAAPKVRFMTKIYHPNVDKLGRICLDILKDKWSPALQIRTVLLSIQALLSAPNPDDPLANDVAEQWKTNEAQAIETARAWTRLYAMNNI

[13] = target: T6, Type-1 angiotensin II receptor (Homo sapiens, UniProt P30556); test: AT1 receptor antagonists, dose response, selectivity assay for APJ receptor antagonist project, cell-based, uHTS hits (AID 463214); assay type: functional;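 further: antagonist potency against angiotensin II stimulated AT1 response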
T6 sequence (P30556 whole entry): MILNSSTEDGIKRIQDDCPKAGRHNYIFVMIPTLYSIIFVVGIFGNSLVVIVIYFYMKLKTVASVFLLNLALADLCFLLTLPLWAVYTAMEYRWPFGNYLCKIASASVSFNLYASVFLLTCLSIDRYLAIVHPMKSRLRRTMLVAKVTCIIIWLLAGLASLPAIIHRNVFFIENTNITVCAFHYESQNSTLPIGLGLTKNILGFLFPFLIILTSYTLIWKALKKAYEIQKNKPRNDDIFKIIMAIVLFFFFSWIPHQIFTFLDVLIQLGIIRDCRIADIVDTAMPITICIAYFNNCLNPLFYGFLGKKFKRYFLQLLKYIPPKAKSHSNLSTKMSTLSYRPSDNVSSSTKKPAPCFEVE

Beta-galactosidase = Beta-galactosidase (Escherichia coli, UniProt Q8VNN2); test: PubChem AID 485352; assay type: functional
H9c2 = test: cells; assay type: functional, cell-based; settings: Rattus norvegicus, H9c2, Myocardium;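 further: confirmatory concentration-response retest of ultra-high-throughput screening hits for modulation of myocardial damage; cell death induced by hydrogen peroxide oxidative stress; compound pretreatment for 60 min then peroxide exposure for 2 h; potency is for protecting the cells against peroxide damage rather than for killing them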
[14] = inhibitors of firefly luciferase expression or activity, dose response, H4 neuroglioma cells, luminescence (AID 1990); assay type: functional, cell-based
[15] = Luminescence Cell-Based Dose Response HTS to Identify Inhibitors of 5'UTR Stem-Loop Driven Prion Protein mRNA Translation in H4 Neuroglioblastoma Cells. [Related pubchem assays: 1827 (Project Summary), 1813 (Primary HTS)]; assay type: functional
[16] = inhibitors of SNCA 5'UTR-driven reporter translation, confirmation, H4 neuroglioma cells, luminescence (AID 1988); assay type: functional, cell-based

Sequence of Nonstructural protein 1 (Q194T2 whole entry): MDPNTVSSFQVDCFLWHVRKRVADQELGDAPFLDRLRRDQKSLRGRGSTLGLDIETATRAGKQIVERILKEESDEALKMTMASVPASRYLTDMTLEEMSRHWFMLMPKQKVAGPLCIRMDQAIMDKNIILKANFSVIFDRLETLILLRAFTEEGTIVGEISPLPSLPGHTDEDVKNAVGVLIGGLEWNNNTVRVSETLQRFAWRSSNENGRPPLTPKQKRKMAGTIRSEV
Sequence of Beta-galactosidase (Q8VNN2 whole entry): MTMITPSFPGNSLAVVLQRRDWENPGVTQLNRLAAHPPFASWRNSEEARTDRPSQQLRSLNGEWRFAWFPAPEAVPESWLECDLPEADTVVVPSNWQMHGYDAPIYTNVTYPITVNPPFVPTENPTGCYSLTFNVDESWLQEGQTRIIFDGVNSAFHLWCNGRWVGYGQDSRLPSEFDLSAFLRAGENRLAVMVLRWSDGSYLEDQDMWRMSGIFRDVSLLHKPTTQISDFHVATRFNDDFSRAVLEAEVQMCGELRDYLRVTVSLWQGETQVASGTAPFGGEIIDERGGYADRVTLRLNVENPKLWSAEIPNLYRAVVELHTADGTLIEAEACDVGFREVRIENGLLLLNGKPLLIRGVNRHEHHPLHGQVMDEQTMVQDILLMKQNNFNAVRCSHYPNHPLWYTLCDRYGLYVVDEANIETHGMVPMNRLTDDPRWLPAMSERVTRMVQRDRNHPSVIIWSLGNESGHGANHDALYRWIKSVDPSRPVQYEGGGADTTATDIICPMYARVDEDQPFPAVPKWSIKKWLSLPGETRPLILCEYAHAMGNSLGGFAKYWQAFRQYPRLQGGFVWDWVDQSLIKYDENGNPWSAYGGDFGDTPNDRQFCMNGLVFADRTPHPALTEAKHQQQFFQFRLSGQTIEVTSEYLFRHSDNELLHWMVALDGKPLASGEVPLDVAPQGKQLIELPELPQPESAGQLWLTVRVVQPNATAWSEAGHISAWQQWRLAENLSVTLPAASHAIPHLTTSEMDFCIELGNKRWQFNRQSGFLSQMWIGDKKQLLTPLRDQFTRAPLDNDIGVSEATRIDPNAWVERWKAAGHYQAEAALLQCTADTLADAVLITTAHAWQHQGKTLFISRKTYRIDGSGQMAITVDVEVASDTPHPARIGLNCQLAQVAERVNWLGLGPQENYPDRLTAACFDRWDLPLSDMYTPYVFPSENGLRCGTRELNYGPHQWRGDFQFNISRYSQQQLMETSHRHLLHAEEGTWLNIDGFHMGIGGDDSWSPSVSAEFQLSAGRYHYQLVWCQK
T3 sequence (P49327 whole entry, the tested form may be a part): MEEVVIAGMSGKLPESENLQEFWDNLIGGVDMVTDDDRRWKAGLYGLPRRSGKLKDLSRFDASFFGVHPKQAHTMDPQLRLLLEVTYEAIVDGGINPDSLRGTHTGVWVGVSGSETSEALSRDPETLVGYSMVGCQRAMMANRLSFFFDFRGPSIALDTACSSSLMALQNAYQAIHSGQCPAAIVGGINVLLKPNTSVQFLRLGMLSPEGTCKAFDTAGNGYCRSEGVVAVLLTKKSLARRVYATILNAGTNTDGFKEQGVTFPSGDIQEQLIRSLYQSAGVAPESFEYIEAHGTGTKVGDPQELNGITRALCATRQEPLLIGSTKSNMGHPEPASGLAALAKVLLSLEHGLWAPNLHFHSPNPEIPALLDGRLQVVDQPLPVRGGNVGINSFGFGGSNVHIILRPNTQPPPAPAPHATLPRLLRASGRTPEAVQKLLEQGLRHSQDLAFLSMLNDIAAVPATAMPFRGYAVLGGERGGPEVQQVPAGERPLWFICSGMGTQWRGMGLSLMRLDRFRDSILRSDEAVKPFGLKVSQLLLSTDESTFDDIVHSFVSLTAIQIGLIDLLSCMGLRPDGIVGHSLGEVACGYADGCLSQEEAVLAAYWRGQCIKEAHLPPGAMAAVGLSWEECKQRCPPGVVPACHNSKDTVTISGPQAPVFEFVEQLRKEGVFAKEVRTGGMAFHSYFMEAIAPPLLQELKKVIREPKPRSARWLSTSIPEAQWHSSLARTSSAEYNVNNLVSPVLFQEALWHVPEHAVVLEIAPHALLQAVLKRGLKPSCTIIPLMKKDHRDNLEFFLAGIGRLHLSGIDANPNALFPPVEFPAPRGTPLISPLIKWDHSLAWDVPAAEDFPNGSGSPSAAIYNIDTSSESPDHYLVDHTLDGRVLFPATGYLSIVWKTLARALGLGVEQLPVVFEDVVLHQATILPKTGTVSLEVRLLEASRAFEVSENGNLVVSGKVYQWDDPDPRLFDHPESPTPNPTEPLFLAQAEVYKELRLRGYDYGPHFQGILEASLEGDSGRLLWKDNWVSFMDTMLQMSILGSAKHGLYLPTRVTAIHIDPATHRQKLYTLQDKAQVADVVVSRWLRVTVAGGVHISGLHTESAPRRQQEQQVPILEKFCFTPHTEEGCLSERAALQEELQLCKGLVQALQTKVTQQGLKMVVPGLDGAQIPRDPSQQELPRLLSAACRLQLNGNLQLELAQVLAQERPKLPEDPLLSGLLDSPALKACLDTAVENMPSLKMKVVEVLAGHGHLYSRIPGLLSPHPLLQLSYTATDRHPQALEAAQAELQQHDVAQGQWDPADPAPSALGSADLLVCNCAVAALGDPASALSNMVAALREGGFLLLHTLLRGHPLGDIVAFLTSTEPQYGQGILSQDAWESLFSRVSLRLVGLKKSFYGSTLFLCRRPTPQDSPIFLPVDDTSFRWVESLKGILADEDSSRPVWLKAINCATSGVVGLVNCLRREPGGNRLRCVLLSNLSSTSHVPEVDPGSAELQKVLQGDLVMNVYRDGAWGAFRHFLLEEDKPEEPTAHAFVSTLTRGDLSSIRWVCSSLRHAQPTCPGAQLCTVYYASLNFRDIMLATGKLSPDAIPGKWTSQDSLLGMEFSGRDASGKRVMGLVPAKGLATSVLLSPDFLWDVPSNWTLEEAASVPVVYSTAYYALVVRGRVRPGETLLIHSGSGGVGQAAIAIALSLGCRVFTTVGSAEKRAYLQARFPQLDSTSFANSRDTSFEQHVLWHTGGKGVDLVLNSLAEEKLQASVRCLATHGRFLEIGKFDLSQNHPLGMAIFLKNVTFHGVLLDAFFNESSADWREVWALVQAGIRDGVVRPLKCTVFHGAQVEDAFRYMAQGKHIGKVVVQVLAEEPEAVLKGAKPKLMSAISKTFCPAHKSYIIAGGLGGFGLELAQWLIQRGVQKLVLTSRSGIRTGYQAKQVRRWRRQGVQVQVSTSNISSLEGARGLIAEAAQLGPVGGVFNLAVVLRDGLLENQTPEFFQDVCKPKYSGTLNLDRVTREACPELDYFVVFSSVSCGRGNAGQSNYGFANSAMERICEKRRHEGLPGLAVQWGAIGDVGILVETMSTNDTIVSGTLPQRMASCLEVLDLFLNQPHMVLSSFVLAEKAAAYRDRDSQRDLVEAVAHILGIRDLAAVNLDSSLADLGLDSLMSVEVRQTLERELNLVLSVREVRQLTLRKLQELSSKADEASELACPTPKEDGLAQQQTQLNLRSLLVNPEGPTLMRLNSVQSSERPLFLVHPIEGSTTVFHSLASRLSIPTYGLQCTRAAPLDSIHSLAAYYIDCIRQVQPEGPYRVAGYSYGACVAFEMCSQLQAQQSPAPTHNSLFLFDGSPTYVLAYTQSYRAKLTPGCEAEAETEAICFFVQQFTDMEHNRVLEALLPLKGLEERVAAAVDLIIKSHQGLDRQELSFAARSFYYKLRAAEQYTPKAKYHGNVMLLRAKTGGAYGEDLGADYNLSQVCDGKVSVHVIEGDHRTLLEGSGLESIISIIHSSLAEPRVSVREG

Compound: COc1cccc(/C=N/n2c(N)c(S(=O)(=O)c3cccs3)c3nc4ccccc4nc32)c1OC
- IC50 (Coagulation factor XII): > 50 µM (inactive)

Compound: O=C(O)CC(Cc1ccc(Cl)cc1)C(=O)Nc1ccc([N+](=O)[O-])cc1 (stereo not drawn)
- IC50 [1]: > 50 µM (not active)

Compound: O=C(c1ccccn1)N1CC(=O)N2[C@H](C1)[C@@H](c1ccc(C#CCc3ccccc3)cc1)[C@@H]2CO
- AC50 [2]: 9.01 µM (active)

Compound: COc1ccc(O)c(/C=N/NC(=O)c2cc(O)nc3ccccc23)c1
- IC50 (Coagulation factor XII): > 50 µM (inactive)

Compound: CCCc1nc2[nH]nc(N)c2c2c1CCC2
- IC50 (Coagulation factor XII): > 50 µM (inactive)

Compound: COc1ccc(N2CCN(S(=O)(=O)c3ccc(C(=O)NC4CCCC4)cc3)CC2)cc1
- IC50 (Coagulation factor XII): > 50 µM (inactive)

Compound: c1cnc2c(c1)ccc1cccnc12
- IC50 (Nonstructural protein 1): 1.03 µM (active)
- EC50 [3]: 6.76 µM (inconclusive)

Compound: O=C(CSc1nnnn1-c1ccccc1)CSc1nnnn1-c1ccccc1
- IC50 [1]: 7.04 µM (not active)

Compound: O=C(NNC(=O)C12CC3CC(CC(C3)C1)C2)c1cnccn1
- EC50 [4]: > 38 µM (not active)
- EC50 [3]: > 160 µM (inactive)
- CC50 [5]: 39.8 µM (active)

Compound: COc1ccc(C2=NN(C(=O)c3ccc(Cl)c([N+](=O)[O-])c3)C(c3ccccc3)C2)cc1 (stereo not drawn)
- IC50 [1]: 3.26 µM (not active)

Compound: O=C(Cn1nc2ccccc2n1)N/N=C/c1cc([N+](=O)[O-])ccc1O
- IC50 (Nonstructural protein 1): 5.08 µM (active)
- IC50 (Fatty acid synthase [6]): 5.14 µM (active)
- IC50 (Fatty acid synthase [7]): 3.76 µM (active)
- EC50 [8]: 0.419 µM (active)
- EC50 [9]: 0.691 µM (active)
- EC50 (Streptococcus): 0.55 µM (active)

Compound: CCC(=O)N1CC2(C1)CN(Cc1ccccc1Cl)[C@@H](CO)c1[nH]c3cc(OC)ccc3c12
- AC50 [2]: 6.32 µM (active)

Compound: Cn1ncc(Oc2ccc([N+](=O)[O-])cc2)c(Cl)c1=O
- EC50 [10]: > 120 µM (not active)
- EC50 [11]: 25.9 µM (active)
- IC50 (Coagulation factor XII): > 50 µM (inactive)
- EC50 (H4): > 120 µM (not active)

Compound: C[C@@H]1CN([C@H](C)CO)C(=O)c2cccc(NS(=O)(=O)c3ccccc3)c2O[C@H]1CN(C)Cc1ccc(Oc2ccccc2)cc1
- AC50 [2]: 6.14 µM (active)

Compound: COc1ccc2sc(-c3ccccc3OC)c(C#Cc3cncn3C)c2c1
- IC50 [12]: > 20 µM (inactive)

Compound: Cc1ncc(CO)c(/C=N/NC(=S)Nc2ccc(F)cc2)c1O
- IC50 (Nonstructural protein 1): 2.84 µM (active)

Compound: O=C(CCN1C(=O)C2C3CC(C(Br)C3Br)C2C1=O)OCC(=O)c1cccc([N+](=O)[O-])c1 (stereo not drawn)
- IC50 [13]: 28.4 µM (not active)
- EC50 (Beta-galactosidase): > 40 µM (inactive)

Compound: Cc1cc(C)c(O)c(-c2cc(C(=O)NCc3ccccc3)[nH]n2)c1
- IC50 [1]: 3.02 µM (not active)

Compound: O=C(CN1C(=O)C2C3C=CC(C3)C2C1=O)Nc1nc(-c2ccccn2)cs1 (stereo not drawn)
- IC50 (Nonstructural protein 1): 10.5 µM (active)
- IC50 (H9c2): 15.1 µM (active)
- EC50 [14]: 15.4 µM (active)
- EC50 [15]: > 120 µM (not active)
- EC50 [16]: 12.2 µM (active)

Compound: O=C(NC(=S)Nc1ccc(S(=O)(=O)Nc2nccs2)cc1)c1ccccc1F
- IC50 (Coagulation factor XII): > 50 µM (inactive)

Compound: CCCCCCCCCC(=O)N1c2ccccc2NC(=O)C1CC(=O)Nc1ccc(C(=O)O)cc1 (stereo not drawn)
- IC50 [1]: 21.1 µM (not active)

Compound: CCC(C)(C)NC(=O)C(c1ccc(C)o1)N(Cc1ccc2c(c1)OCO2)C(=O)c1snc(C(N)=O)c1N (stereo not drawn)
- IC50 [12]: > 20 µM (inactive)

Compound: CC1CCN(CCNC(=O)c2ccc3c(=O)n(Cc4ccc(Cl)cc4)c(=S)[nH]c3c2)CC1
- IC50 [12]: > 20 µM (inactive)

Compound: CCOC(=O)C1=NNC(C(=O)c2ccc(Cl)cc2)C1c1ccccc1 (stereo not drawn)
- IC50 [13]: 39.9 µM (not active)
- EC50 (Beta-galactosidase): > 40 µM (inactive)

Compound: CC(C)Oc1cccc(C(=O)NC(=S)Nc2cccnc2)c1
- IC50 [13]: > 40 µM (not active)
- EC50 (Beta-galactosidase): > 40 µM (inactive)

Compound: CC1=C(C(=O)OCC2CCCO2)C(c2ccc(C)o2)C2=C(O)CC(c3ccc(N(C)C)cc3)CC2=N1 (stereo not drawn)
- IC50 [1]: > 50 µM (not active)

Compound: C[C@@H]1CN([C@@H](C)CO)C(=O)c2cc(NC(=O)Nc3ccc(C(F)(F)F)cc3)ccc2O[C@H]1CN(C)C(=O)Nc1cccc2ccccc12
- AC50 [2]: 5.06 µM (active)

Compound: O=C(OCc1nnc(-c2ccccc2)o1)c1ccc2c(c1)OCO2
- IC50 [1]: 15.2 µM (not active)

Compound: O=C(COC(=O)c1ccc(Br)o1)c1ccc(S(=O)(=O)N2CCCCC2)cc1
- IC50 [13]: 23.2 µM (not active)
- EC50 (Beta-galactosidase): > 40 µM (inactive)
